Structures can show the parent of a compound that is named as a salt.
Legend:
GK-GKRP = molecular target: T1, GK-GKRP (Homo sapiens, UniProt Q14397); assay: biochemical; details: GK-GKRP IC50 (Binding)
T1 sequence (Q14397 1-625): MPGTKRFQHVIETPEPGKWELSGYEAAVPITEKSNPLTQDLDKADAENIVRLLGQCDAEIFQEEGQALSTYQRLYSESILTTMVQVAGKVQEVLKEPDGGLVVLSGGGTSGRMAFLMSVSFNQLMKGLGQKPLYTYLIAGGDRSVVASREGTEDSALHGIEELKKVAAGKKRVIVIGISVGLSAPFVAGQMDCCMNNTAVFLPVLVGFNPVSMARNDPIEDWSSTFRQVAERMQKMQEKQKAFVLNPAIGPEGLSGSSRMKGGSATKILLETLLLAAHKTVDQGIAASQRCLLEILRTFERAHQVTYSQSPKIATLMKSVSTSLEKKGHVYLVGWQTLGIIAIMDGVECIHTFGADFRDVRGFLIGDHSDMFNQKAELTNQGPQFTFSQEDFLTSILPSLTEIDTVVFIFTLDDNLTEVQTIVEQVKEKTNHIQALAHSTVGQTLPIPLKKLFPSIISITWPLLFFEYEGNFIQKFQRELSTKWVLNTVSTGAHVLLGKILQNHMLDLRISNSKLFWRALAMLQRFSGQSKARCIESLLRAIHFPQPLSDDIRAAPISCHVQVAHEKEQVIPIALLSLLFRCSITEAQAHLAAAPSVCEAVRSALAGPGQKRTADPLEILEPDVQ

[1] = molecular target: T2, GKRP (Glucokinase Regulatory Protein) with human His-hepatic GK (Homo sapiens, UniProt Q14397); assay: GKRP LC MS/MS Biochemical Assay; details: 13C-glucose-6-phosphate formation, 1 μM GKRP (10×), 30 nM GK (5×)
T2 sequence (Q14397 1-625): T1 sequence (Q14397 1-625)
Outline: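 Human His-hepatic GK (working stock 30 nM, 5×) with GKRP in 50 mM Tris pH 7.5, 4 mM MgCl2, 6% DMSO, DTT, BSA and Brij-35. After a 30 min preincubation, GK was added and the reaction ran 30 min at room temperature. Stopped with acetonitrile; 13C-glucose-6-phosphate formed from 13C-glucose quantified by LC MS/MS.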

[2] = molecular target: T2, GKRP (Glucokinase Regulatory Protein) with human His-hepatic GK; assay: GKRP NADPH Coupled Assay; assay type: biochemical; details: indirect measure of glucose-6-phosphate, fluorescence, 1 μM GKRP (10×), 20 nM GK (5×)
Outline: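 Human His-hepatic GK (5× stock 20 nM) in 50 mM Tris pH 7.5, 4 mM MgCl2, 6% DMSO, 0.1% BSA, 0.01% Brij-35, with GKRP and compound preincubated 30 min, then reaction 1 h at RT. Glucose-6-phosphate read indirectly via G6P dehydrogenase-coupled NADPH formation from β-NADP (2× stop/detection reagent, pH 9.2, 5 min).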

Row | SMILES | IC50 (GK-GKRP) | EC50 ([1]; GK-GKRP EC50 (LC MS/MS)) | EC50 ([2]; GK-GKRP EC50 (NADPH-coupled)) | EC50 ([1]; read-out: GK-GKRP EC50 (LC MS/MS)) | EC50 ([2]; read-out: GK-GKRP EC50 (NADPH-coupled))
1 | CC#CC1CN(S(=O)(=O)c2ccc(N)nc2)CCN1c1ncc(C(C)(O)C(F)(F)F)cn1 (mixture of isomers) [Example 251, 2-(2-(4-((6-amino-3-pyridinyl)sulfonyl)-2-(1-propyn-1-yl)-1-piperazinyl)-5-pyrimidinyl)-1,1,1-trifluoro-2-propanol] | 36 nM |  |  |  | 
2 | CC(c1ccccc1)N(C[C@H]1CN(S(=O)(=O)c2cccs2)CCN1c1ccc(C(C)(O)C(F)(F)F)cc1)S(C)(=O)=O (mixture of isomers) [Example 252, N-(1-phenylethyl)-N-(((2R)-4-(2-thiophenylsulfonyl)-1-(4-(2,2,2-trifluoro-1-hydroxy-1-methylethyl)phenyl)-2-piperazinyl)methyl)methanesulfonamide] | 671 nM |  |  |  | 
3 | O=S(=O)(c1ccccc1F)N1CCN(c2ccc(C(O)(C(F)(F)F)C(F)(F)F)cc2)CC1 [Example 6, 1,1,1,3,3,3-hexafluoro-2-(4-(4-((2-fluorophenyl)sulfonyl)-1-piperazinyl)phenyl)-2-propanol] |  | 1520 nM | 1880 nM |  | 
4 | O=S(=O)(c1ccccn1)N1CCN(c2ccc(C(O)(C(F)(F)F)C(F)(F)F)cc2)CC1 [Example 7, 1,1,1,3,3,3-hexafluoro-2-(4-(4-(2-pyridinylsulfonyl)-1-piperazinyl)phenyl)-2-propanol] |  | 3290 nM | 3780 nM |  | 
5 | Cc1ccc(S(=O)(=O)N2CCN(c3ccc(C(O)(C(F)(F)F)C(F)(F)F)cc3)CC2)s1 [Example 8, 1,1,1,3,3,3-hexafluoro-2-(4-(4-((5-methyl-2-thiophenyl)sulfonyl)-1-piperazinyl)phenyl)-2-propanol] |  | 11400 nM | 4580 nM |  | 
6 | O=S(=O)(c1cccc(Cl)c1)N1CCN(c2ccc(C(O)(C(F)(F)F)C(F)(F)F)cc2)CC1 [Example 9, 2-(4-(4-(3-chlorophenylsulfonyl)piperazin-1-yl)phenyl)-1,1,1,3,3,3-hexafluoro-2-propanol] |  | 3710 nM | 4410 nM |  | 
7 | O=S(=O)(c1ccccc1Cl)N1CCN(c2ccc(C(O)(C(F)(F)F)C(F)(F)F)cc2)CC1 [Example 10, 2-(4-(4-((2-chlorophenyl)sulfonyl)-1-piperazinyl)phenyl)-1,1,1,3,3,3-hexafluoro-2-propanol] |  | 2600 nM | 3950 nM |  | 
8 | C[C@H]1CN(S(=O)(=O)c2ccccc2)CCN1c1ccc(C(O)(C(F)(F)F)C(F)(F)F)cc1 [Example 12, 1,1,1,3,3,3-hexafluoro-2-(4-((2S)-2-methyl-4-(phenylsulfonyl)-1-piperazinyl)phenyl)-2-propanol] |  | 884 nM | 821 nM |  | 
9 | O=S(=O)(c1ccccc1)c1ccc(-c2ccc(C(O)(C(F)(F)F)C(F)(F)F)cn2)cc1 [Example 17, 1,1,1,3,3,3-hexafluoro-2-(6-(4-(phenylsulfonyl)phenyl)-3-pyridinyl)-2-propanol] |  | 1710 nM | 1630 nM |  | 
10 | O=S(=O)(c1ccccc1)c1ccc(-c2ccc(C(O)(C(F)(F)F)C(F)(F)F)cc2)cc1 [Example 21, 1,1,1,3,3,3-hexafluoro-2-(4′-(phenylsulfonyl)-4-biphenylyl)-2-propanol] |  | 3960 nM | 1660 nM |  | 
11 | O=S(=O)(c1ccccc1)N1CCN(c2ccc(C(O)(C(F)(F)F)C(F)(F)F)cn2)CC1 [Example 22, 1,1,1,3,3,3-hexafluoro-2-(6-(4-(phenylsulfonyl)-1-piperazinyl)-3-pyridinyl)-2-propanol] |  | 2080 nM | 2730 nM |  | 
12 | C[C@H]1CN(S(=O)(=O)c2nccs2)CCN1c1ccc(C(O)(C(F)(F)F)C(F)(F)F)cc1 [Example 31, 1,1,1,3,3,3-hexafluoro-2-(4-((2S)-2-methyl-4-(1,3-thiazol-2-ylsulfonyl)-1-piperazinyl)phenyl)-2-propanol trifluoroacetate] |  | 702 nM | 561 nM |  | 
13 | O=S(=O)(c1nccs1)N1CCN(c2ccc(C(O)(C(F)(F)F)C(F)(F)F)cc2)CC1 [Example 33, 1,1,1,3,3,3-hexafluoro-2-(4-(4-(1,3-thiazol-2-ylsulfonyl)-1-piperazinyl)phenyl)-2-propanol trifluoroacetate] |  | 842 nM | 664 nM |  | 
14 | CC(O)(c1ccc(N2CCN(S(=O)(=O)c3ccccc3)CC2CC2CCOCC2)cc1)C(F)(F)F (stereo not drawn) [Example 41, 1,1,1-trifluoro-2-(4-(4-(phenylsulfonyl)-2-(tetrahydro-2H-pyran-4-ylmethyl)-1-piperazinyl)phenyl)-2-propanol] |  |  |  | 572 nM | 785 nM
15 | C[C@H]1COCCN1C[C@H]1CN(S(=O)(=O)c2cccs2)CCN1c1ccc([C@@](C)(O)C(F)(F)F)cc1 [Example 45 Peak #2, 1,1,1-trifluoro-2-(4-((2S)-2-(((3S)-3-methyl-4-morpholinyl)methyl)-4-(2-thiophenylsulfonyl)-1-piperazinyl)phenyl)-2-propanol] |  | 71 nM | 68 nM |  | 
16 | CC(O)(c1ccc(N2CCN(S(=O)(=O)c3cccs3)CC2CN2C[C@H]3C[C@@H]2CO3)cc1)C(F)(F)F (stereo partly drawn) [Example 50, 1,1,1-trifluoro-2-(4-(2-((1R,4R)-2-oxa-5-azabicyclo[2.2.1]hept-5-ylmethyl)-4-(2-thiophenylsulfonyl)-1-piperazinyl)phenyl)-2-propanol] |  | 880 nM | 670 nM |  | 
17 | O=S(=O)(c1c[nH]cn1)N1CCN(c2ccc(C(O)(C(F)(F)F)C(F)(F)F)cc2)CC1 [Example 60, 1,1,1,3,3,3-hexafluoro-2-(4-(4-(1H-imidazol-4-ylsulfonyl)-1-piperazinyl)phenyl)-2-propanol] |  | 2320 nM | 2340 nM |  | 
18 | CC[C@H]1CN(S(=O)(=O)c2cccs2)CCN1c1ccc(C(O)(C(F)(F)F)C(F)(F)F)cc1 [Example 63, 2-(4-((2S)-2-ethyl-4-(2-thiophenylsulfonyl)-1-piperazinyl)phenyl)-1,1,1,3,3,3-hexafluoro-2-propanol] |  | 1370 nM | 679 nM |  | 
19 | O=S(=O)(c1cccs1)N1CCN(c2ccc(C(O)(C(F)(F)F)C(F)(F)F)cc2)[C@@H](Cc2ccccc2)C1 [Example 64, 2-(4-((2S)-2-benzyl-4-(2-thiophenylsulfonyl)-1-piperazinyl)phenyl)-1,1,1,3,3,3-hexafluoro-2-propanol] |  | 772 nM | 308 nM |  | 
20 | O=S(=O)(c1cccs1)N1CCN(c2ccc(C(O)(C(F)(F)F)C(F)(F)F)cc2-c2ccccc2)CC1 [Example 69, 1,1,1,3,3,3-hexafluoro-2-(6-(4-(2-thiophenylsulfonyl)-1-piperazinyl)-3-biphenylyl)-2-propanol trifluoroacetate] |  | 1750 nM | 2120 nM |  | 
21 | COc1cccc(-c2cc(C(O)(C(F)(F)F)C(F)(F)F)ccc2N2CCN(S(=O)(=O)c3cccs3)CC2)c1 [Example 70, 1,1,1,3,3,3-hexafluoro-2-(3′-methoxy-6-(4-(2-thiophenylsulfonyl)-1-piperazinyl)-3-biphenylyl)-2-propanol trifluoroacetate] |  | 1820 nM | 3340 nM |  | 
22 | O=S(=O)(c1cccs1)N1CCN(c2ccc(C(O)(C(F)(F)F)C(F)(F)F)cc2-c2cccc(F)c2)CC1 [Example 71, 1,1,1,3,3,3-hexafluoro-2-(3′-fluoro-6-(4-(2-thiophenylsulfonyl)-1-piperazinyl)-3-biphenylyl)-2-propanol] |  | 1840 nM | 3670 nM |  | 
23 | O=S(=O)(c1cccs1)N1CCN(c2ccc(C(O)(C(F)(F)F)C(F)(F)F)cc2-c2cccnc2)CC1 [Example 72, 1,1,1,3,3,3-hexafluoro-2-(3-(3-pyridinyl)-4-(4-(2-thiophenylsulfonyl)-1-piperazinyl)phenyl)-2-propanol] |  | 783 nM | 775 nM |  | 
24 | O=S(=O)(c1cccs1)N1CCN(c2ccc(C(O)(C(F)(F)F)C(F)(F)F)cc2-c2ccsc2)CC1 [Example 73, 1,1,1,3,3,3-hexafluoro-2-(3-(3-thiophenyl)-4-(4-(2-thiophenylsulfonyl)-1-piperazinyl)phenyl)-2-propanol] |  | 1900 nM | 3500 nM |  | 
25 | O=S(=O)(c1cccs1)N1CCN(c2ccc(C(O)(C(F)(F)F)C(F)(F)F)cc2-c2ccc(O)cc2)CC1 [Example 74, 2′-(4-(2-thiophenylsulfonyl)-1-piperazinyl)-5′-(2,2,2-trifluoro-1-hydroxy-1-(trifluoromethyl)ethyl)-4-biphenylol] |  | 1370 nM | 1470 nM |  | 

— patent publication US8431563B2 (priority 2010, dated 2013)
